Data: ChEMBL document CHEMBL1201862, “PubChem BioAssay data set” (2004)
Where a name gives a salt, the structure may show the parent alone. Active and inactive are the calls of the source.

Experiments:
[1] = viability of PTEN-deleted HCT116 cells – cell-based, HCT116 PTEN knockout, dose response (AID 1047); assay type: functional;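 further: HCT116 colon tumor cells with PTEN knocked out; cells exposed to compound for 60 hours before readout; potency for loss of cell viability measured by luminescence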
[2] = viability of HCT116 lacking mutant beta-catenin – cell-based, human colon tumor, dose response (AID 1045); assay type: functional;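 further: HCT116 colon tumor cells with beta catenin knocked out; cells exposed to compound for 60 hours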
Exodeoxyribonuclease V = Exodeoxyribonuclease V (Escherichia coli (strain K12), UniProt P04993+P07648+P08394); assay: RecBCD inhibition via phage-restricted bacterial growth – absorbance, V66 E. coli, mutant T4 phage, counter-screen for AddAB inhibitor project, dose response (AID 492957); assay type: functional, cell-based, Escherichia coli str. K-12 substr. MG1655
Exodeoxyribonuclease V, sequence (P04993 whole entry): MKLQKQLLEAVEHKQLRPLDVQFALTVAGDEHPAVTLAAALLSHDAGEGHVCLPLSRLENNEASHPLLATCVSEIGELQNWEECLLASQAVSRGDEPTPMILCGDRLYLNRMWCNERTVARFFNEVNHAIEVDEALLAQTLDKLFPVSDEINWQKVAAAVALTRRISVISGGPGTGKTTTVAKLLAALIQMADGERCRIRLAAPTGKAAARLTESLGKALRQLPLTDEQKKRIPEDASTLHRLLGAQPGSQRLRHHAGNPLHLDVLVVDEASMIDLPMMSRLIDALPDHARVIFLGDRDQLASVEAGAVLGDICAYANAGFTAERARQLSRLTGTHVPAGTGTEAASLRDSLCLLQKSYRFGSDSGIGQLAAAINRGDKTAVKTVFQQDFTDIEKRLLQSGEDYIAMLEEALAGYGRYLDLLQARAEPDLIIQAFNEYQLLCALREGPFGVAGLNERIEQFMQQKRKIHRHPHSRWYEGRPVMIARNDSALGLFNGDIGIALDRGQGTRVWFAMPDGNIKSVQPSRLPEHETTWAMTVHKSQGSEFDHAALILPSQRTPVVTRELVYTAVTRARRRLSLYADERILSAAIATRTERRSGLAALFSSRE
Exodeoxyribonuclease V, sequence (P07648 whole entry): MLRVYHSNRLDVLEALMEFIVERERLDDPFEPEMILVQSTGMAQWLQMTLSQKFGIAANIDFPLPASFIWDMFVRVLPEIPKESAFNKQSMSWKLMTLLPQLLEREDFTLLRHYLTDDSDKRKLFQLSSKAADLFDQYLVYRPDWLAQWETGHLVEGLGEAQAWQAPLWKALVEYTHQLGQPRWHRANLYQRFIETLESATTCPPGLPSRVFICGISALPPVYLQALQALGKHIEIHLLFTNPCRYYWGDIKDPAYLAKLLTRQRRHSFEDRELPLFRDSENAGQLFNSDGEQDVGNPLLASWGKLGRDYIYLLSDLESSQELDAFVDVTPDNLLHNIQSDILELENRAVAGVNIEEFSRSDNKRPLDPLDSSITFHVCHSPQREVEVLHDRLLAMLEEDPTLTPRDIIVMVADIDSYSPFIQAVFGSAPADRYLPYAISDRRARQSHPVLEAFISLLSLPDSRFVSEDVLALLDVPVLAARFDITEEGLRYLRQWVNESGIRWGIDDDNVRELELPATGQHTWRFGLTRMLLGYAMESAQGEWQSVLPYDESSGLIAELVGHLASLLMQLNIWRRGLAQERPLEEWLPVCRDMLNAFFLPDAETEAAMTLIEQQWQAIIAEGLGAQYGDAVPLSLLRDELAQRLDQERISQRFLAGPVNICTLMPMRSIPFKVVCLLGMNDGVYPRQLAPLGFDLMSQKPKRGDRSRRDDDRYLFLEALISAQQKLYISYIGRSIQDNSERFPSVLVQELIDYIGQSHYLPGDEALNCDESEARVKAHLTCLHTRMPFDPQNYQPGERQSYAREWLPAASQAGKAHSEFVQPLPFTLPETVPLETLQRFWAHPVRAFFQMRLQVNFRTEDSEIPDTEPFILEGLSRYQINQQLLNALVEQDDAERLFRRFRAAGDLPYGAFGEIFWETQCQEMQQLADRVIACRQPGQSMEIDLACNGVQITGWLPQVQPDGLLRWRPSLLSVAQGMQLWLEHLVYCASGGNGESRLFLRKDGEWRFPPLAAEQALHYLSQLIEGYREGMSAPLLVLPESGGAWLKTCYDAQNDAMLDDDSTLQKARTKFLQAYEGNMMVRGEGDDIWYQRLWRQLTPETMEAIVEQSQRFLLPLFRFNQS
Exodeoxyribonuclease V, sequence (P08394 whole entry): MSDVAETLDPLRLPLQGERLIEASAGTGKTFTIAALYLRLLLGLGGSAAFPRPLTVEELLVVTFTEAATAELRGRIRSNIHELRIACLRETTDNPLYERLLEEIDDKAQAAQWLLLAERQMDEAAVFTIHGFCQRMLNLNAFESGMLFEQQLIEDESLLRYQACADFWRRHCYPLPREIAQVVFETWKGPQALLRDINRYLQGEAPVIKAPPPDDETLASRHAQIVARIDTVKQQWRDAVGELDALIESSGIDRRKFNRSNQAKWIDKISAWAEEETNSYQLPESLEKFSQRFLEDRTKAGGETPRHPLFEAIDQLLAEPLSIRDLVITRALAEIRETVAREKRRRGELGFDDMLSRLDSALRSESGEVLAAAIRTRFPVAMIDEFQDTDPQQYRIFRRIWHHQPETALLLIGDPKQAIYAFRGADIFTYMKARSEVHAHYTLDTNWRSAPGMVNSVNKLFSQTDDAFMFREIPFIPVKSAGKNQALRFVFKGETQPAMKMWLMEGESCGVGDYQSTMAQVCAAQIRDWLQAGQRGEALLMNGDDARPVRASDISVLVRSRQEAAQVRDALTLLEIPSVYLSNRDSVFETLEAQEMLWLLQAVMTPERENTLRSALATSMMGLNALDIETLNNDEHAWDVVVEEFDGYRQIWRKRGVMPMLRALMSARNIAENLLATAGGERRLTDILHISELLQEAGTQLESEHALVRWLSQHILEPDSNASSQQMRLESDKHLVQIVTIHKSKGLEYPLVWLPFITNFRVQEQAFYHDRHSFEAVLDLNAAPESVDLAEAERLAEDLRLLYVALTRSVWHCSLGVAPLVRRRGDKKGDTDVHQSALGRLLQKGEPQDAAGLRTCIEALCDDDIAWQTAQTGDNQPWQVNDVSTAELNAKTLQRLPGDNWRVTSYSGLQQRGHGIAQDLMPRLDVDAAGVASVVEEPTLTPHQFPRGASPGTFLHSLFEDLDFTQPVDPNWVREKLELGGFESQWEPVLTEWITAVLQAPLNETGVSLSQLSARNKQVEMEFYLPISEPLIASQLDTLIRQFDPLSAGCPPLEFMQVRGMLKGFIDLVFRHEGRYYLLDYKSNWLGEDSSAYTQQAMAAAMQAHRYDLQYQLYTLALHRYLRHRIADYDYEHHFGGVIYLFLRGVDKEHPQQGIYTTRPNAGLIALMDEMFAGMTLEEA

[3] = Counterscreen for AddAB inhibitors: absorbance-based bacterial cell-based high throughput dose response assay for inhibitors of bacterial viability. [Related pubchem assays (depositor defined):AID435030, AID449728, AID449731, AID488942, AID488955, AID488956]; assay type: functional
Vero [4] = assay: cells; assay type: functional, cell-based; conditions: Chlorocebus sabaeus
Vero [5] = assay: cells; assay type: functional; conditions: Chlorocebus sabaeus
[6] = HGIII-sPLA2 enzyme inhibition potency – biochemical, QFRET, IC50, dose response (AID 743457);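 further: green fluorescence rise as the enzyme cleaves BODIPY PC-A2 in liposomes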
[7] = target: T1, Tyrosine-protein phosphatase non-receptor type 7 (Homo sapiens, UniProt P35236); assay type: functional
T1 sequence (P35236 whole entry): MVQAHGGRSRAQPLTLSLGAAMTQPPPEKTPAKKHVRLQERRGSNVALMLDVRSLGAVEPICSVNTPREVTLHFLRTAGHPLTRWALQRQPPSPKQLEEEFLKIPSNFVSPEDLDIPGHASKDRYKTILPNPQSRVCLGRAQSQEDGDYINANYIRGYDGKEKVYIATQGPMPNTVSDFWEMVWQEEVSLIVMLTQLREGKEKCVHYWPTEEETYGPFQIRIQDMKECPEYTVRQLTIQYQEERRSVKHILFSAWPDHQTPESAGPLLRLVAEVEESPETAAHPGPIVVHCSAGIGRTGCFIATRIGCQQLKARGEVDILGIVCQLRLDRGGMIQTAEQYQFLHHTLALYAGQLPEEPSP

[8] = target: T2, Tyrosine-protein phosphatase non-receptor type 22 (Homo sapiens, UniProt Q9Y2R2); assay type: functional
T2 sequence (Q9Y2R2 whole entry): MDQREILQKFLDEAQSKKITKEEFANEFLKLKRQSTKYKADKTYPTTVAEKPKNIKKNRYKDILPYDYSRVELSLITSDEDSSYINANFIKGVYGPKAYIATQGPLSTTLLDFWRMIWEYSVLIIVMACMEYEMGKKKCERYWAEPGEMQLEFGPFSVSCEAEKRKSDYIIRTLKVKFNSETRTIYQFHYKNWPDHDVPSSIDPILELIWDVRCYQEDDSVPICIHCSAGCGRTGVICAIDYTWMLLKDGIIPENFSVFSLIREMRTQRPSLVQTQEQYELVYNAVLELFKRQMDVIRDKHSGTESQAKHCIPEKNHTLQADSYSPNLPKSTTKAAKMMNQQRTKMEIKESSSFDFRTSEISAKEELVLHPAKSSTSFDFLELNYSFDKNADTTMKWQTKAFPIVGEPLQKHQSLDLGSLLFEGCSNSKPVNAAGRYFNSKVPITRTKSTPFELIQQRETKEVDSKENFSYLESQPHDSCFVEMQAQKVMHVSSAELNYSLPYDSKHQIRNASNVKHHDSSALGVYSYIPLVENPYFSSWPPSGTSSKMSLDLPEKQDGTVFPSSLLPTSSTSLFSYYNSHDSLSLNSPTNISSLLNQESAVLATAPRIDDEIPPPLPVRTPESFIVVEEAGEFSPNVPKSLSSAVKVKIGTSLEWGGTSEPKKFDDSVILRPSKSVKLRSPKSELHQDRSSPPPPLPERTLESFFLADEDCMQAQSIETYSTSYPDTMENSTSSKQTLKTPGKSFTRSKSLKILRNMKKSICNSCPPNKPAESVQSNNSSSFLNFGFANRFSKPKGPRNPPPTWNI

[9] = target: T2, Tyrosine-protein phosphatase non-receptor type 22; assay type: functional; remark: listed apart in the source
Bcl-2-related protein A1 = Bcl-2-related protein A1 (Mus musculus, UniProt Q07440); assay type: functional;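 further: confirmatory dose–response counterscreen on Bfl-1, used to check hits from a UBC13 polyubiquitin inhibitor campaign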
Bcl-2-related protein A1, sequence (Q07440 whole entry): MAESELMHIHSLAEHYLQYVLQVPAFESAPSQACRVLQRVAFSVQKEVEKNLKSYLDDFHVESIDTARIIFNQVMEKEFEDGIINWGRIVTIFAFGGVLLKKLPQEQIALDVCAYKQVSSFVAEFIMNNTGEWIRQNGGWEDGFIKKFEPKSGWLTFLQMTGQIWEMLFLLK

[10] = target: T3, Ubiquitin-conjugating enzyme E2 N (Homo sapiens, UniProt P61088); assay type: functional
T3 sequence (P61088 whole entry): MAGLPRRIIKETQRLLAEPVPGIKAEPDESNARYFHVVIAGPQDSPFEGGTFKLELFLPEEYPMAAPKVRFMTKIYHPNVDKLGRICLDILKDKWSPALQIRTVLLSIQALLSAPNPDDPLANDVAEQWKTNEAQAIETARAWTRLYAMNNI

[11] = target: T3, Ubiquitin-conjugating enzyme E2 N; assay type: functional; remark: listed apart in the source
[12] = target: T4, Kappa-type opioid receptor (Homo sapiens, UniProt P41145); assay: kappa opioid receptor activation by imaging – image-based, set 3, SAR follow-up (AID 488833); assay type: functional
T4 sequence (P41145 whole entry): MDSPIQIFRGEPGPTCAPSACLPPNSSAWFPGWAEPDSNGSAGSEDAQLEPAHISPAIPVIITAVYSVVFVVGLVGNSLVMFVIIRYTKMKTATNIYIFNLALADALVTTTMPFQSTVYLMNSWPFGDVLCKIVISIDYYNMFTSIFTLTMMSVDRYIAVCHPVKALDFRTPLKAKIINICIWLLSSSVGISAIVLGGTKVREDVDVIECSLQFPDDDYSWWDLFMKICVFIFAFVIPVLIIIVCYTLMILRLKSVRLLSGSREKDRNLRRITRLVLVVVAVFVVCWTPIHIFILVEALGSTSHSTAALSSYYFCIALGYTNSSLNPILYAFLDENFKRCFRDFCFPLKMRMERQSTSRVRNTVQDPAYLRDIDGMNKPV

Mu-type opioid receptor [13] = target: T5, Mu-type opioid receptor (Homo sapiens, UniProt P35372); assay: SAR Analysis of Agonists of the MOR Receptor using an Image-Based Assay - Set 3. [Related pubchem assays (depositor defined):AID1777, AID1785, AID1786, AID1966, AID2133, AID2136, AID2284, AID2285, AID2352]; assay type: functional
T5 sequence (P35372 whole entry): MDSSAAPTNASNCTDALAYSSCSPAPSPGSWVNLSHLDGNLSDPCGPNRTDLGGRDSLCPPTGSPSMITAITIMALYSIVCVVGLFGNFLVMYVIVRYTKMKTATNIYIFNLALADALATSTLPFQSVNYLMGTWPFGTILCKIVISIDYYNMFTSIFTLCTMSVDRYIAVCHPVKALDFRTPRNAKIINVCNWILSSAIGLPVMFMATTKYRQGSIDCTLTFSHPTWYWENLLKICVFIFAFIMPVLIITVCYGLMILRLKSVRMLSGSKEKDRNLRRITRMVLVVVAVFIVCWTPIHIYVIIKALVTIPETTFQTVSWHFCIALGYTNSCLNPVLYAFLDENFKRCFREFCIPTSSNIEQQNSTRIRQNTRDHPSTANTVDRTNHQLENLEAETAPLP

[14] = target: Delta-type opioid receptor (Homo sapiens, UniProt P41143); assay: SAR Analysis of Agonists of the DOR Receptor using an Image-Based Assay - Set 3. [Related pubchem assays (depositor defined):AID1777, AID1786]; assay type: functional
Delta-type opioid receptor, sequence (P41143 whole entry): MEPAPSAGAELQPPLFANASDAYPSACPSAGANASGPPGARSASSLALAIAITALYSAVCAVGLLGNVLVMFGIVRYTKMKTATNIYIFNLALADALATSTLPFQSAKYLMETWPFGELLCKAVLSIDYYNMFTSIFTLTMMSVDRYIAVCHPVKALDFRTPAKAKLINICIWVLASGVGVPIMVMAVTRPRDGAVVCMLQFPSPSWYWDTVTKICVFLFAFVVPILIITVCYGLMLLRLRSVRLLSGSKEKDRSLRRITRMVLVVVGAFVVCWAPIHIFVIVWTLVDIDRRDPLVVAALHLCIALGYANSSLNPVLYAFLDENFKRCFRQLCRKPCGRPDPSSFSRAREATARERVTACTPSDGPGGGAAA

[15] = target: T4, Kappa-type opioid receptor; assay: SAR analysis of small molecule agonists of the kappa opioid receptor via a luminescent beta-arrestin assay - Set 3. [Related pubchem assays (depositor defined):AID1777, AID1785, AID1786, AID1966, AID2133, AID2136, AID2284, AID2500]; assay type: functional
[16] = Luminescence Cell-Based Dose Retest to Confirm Inhibitors of Cancer Stem Cells. [Related pubchem assays (depositor defined):AID2717, AID2721]; assay type: functional, Homo sapiens; conditions: Homo sapiens
Nonstructural protein 1 = Nonstructural protein 1 (Influenza A virus, UniProt Q194T2); assay type: functional, Influenza A virus (A/California/07/2009(H1N1))
Nonstructural protein 1, sequence (Q194T2 whole entry): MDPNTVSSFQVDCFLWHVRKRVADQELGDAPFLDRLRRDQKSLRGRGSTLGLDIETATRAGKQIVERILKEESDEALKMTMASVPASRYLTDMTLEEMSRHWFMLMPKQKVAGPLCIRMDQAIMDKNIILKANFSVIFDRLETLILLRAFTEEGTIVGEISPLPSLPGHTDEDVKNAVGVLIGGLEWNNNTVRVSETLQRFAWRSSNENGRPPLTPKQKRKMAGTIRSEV

[17] = viability loss of HMLE_sh_eGFP cells – cell-based, luminescence, counter-screen for HMLE_sh_ECad selective toxicity project, dose response (AID 463074); assay type: functional, Homo sapiens;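 further: HMLE human mammary epithelial cells expressing control shRNA against eGFP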
[18] = target: T6, Rac GTPase-activating protein 1 (Homo sapiens, UniProt Q9H0H5); assay: blockers of MgcRacGAP-driven Rac1 GTP hydrolysis – biochemical, ADP Hunter fluorescence, primary and confirmatory, confirmation (AID 624330); assay type: functional
T6 sequence (Q9H0H5 whole entry): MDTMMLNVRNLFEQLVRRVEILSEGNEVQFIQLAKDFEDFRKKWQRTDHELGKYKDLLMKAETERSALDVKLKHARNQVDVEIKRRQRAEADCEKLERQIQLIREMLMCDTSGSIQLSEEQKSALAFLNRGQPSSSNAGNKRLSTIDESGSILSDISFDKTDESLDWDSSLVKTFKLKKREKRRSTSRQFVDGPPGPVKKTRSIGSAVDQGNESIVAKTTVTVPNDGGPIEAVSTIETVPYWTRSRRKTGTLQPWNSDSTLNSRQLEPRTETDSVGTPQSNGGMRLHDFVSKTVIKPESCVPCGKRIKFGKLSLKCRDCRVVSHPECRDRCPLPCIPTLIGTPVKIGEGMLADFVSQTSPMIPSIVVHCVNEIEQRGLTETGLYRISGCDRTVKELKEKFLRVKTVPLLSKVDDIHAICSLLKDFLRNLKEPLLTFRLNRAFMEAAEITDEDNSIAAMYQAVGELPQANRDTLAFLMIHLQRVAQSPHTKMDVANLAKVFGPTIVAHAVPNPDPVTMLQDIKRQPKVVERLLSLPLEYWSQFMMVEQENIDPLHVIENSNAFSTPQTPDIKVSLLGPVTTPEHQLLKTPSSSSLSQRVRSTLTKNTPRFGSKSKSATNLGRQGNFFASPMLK

[19] = bead-based luminescence quenchers, dual-tagged ARNT – biochemical, AlphaScreen, cherry-pick, artefact control for ARNT-TACC3 interaction inhibitor project, dose response (AID 651705); assay type: functional;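 further: AlphaScreen bead proximity signal that flags compounds interfering with the detection technology; potency reflects signal decrease which marks the compound as an assay artifact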
[20] = target: T7, DNA repair protein RAD52 homolog (Homo sapiens, UniProt P43351); assay type: functional, biochemical
T7 sequence (P43351 whole entry): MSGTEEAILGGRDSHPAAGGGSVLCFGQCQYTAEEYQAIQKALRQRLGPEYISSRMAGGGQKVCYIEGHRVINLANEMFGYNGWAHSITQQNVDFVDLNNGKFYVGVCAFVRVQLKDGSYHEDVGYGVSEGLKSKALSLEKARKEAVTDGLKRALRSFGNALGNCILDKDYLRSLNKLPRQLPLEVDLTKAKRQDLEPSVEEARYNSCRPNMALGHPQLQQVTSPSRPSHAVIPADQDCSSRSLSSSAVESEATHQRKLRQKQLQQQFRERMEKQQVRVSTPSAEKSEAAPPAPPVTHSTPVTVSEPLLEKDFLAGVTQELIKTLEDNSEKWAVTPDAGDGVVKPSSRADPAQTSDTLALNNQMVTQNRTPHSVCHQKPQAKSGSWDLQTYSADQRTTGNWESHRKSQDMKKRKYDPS

Mu-type opioid receptor [21] = target: T5, Mu-type opioid receptor; assay type: functional, cell-based
[22] = target: 5-hydroxytryptamine receptor 2A (Mus musculus, UniProt P35363); assay type: functional, cell-based;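 further: CHO-K1 cells with tagged receptor and beta-arrestin; agonist potency measured as compound-induced activation of the receptor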
5-hydroxytryptamine receptor 2A, sequence (P35363 whole entry): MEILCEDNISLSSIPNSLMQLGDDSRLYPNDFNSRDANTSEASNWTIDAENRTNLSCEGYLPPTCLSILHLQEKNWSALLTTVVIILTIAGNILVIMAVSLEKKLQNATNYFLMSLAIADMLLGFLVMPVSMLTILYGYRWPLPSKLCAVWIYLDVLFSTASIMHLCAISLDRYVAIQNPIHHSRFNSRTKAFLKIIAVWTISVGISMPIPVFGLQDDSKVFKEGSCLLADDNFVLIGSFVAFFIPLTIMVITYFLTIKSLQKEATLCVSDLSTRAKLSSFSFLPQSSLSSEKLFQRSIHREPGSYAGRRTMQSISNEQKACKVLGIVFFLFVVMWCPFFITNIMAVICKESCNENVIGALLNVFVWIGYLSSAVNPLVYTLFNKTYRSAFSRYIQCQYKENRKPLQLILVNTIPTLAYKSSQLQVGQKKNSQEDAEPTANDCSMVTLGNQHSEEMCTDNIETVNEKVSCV

Escherichia coli [23] = assay: microbe, parasite or virus in culture
Escherichia coli [24] = assay: microbe, parasite or virus in culture; remark: listed apart in the source

With `CCCCCOc1ccc(CSC(=N)N)cc1[N+](=O)[O-]` the EC50 [1] was 25 µM (active), the EC50 [2] was 27 µM (active) and the IC50 (Exodeoxyribonuclease V) was > 39.5 µM (inactive). The IC50 [3] was 83.6 µM (inactive), the IC50 (Vero [4]) was 21.2 µM (active) and the CC50 (Vero [5]) was > 25 µM (active). The IC50 [6] was > 122 µM (inactive).
With `CCOC1(C)OCC(=O)[C@]2(CCC3C4CCC5=CC(=O)C=CC5(C)C4C(=O)CC32C)O1` (stereo not given in full) the IC50 [7] was > 79.4 µM (inactive), the IC50 [8] was > 79.4 µM (inactive) and the IC50 [9] was > 79.4 µM (inactive).
With `Cc1cc(C(=O)NNC(=S)NC(=O)/C=C/c2ccccc2Cl)[nH]n1` the IC50 (Bcl-2-related protein A1) was > 20 µM (inactive), the IC50 [10] was 6.96 µM (active) and the IC50 [11] was 5.24 µM (active). The IC50 [6] was > 122 µM (inactive).
With `Fc1ccc(CSc2nnc(-c3ccccn3)n2Cc2ccco2)c(C(F)(F)F)c1` the EC50 [12] was 5.39 µM (active), the EC50 (Mu-type opioid receptor [13]) was > 32 µM (inactive) and the EC50 [14] was > 64 µM (inactive). The EC50 [15] was 8.27 µM (active).
With `O=C(Cn1cnc([N+](=O)[O-])n1)N/N=C/c1ccc(O)cc1O` the AC50 [16] was 19.3 µM (active), the IC50 (Nonstructural protein 1) was 10.9 µM (active) and the AC50 [17] was 20.8 µM (active). The IC50 [18] was 107 µM (active) and the AC50 [19] was 102 µM (active).
With `C[C@]12CC[C@H](O)C[C@@H]1CC[C@@H]1[C@@H]2CC[C@]2(C)[C@@H](OC(=O)[C@H](N)CCCCN)CC[C@@H]12` the IC50 (Bcl-2-related protein A1) was > 20 µM (inactive), the IC50 [11] was 11.8 µM (active) and the AC50 [20] was 1.27 µM (active).
In the case of `CN(C)[C@@H]1C(O)=C(C(N)=O)C(=O)[C@@]2(O)C(O)=C3C(=O)c4c(O)ccc(Cl)c4[C@@H](O)[C@H]3C[C@@H]12` [DEMECLOCYCLINE HYDROCHLORIDE], the EC50 (Mu-type opioid receptor [21]) is reported as 92.5 µM (inactive), the EC50 [22] is reported as 13.7 µM (inactive) and the AC50 (Escherichia coli [23]) is reported as 36 µM (active). For the same compound, the AC50 (Escherichia coli [24]) was 0.866 µM (active).
